Experiments:
Type in all cases: cell-based
[1] = tested on: 66 cancer cell lines; experiment: ONCOLINES Profiler, whole panel
Excerpt: The sensitivities of multiple cancer cells can be determined by screening the compounds on a cancer cell line panel, such as an ONCOLINES™ Profiler (Netherlands Translational Research Center) assayed with various tumor cell lines. For more information on ONCOLINES™ methods, see https://www.oncolines.com/oncolines/oncolines-explained-facts/. […] For example, Compound 7A inhibited the proliferation of 57 of the 66 cell lines being tested. […] “A tumor cell line sensitive to the compounds” is referred to that the proliferation of a tumor cell line, when contacted with the compounds, is inhibited by at least 50%, at least 60%, at least 70%, at least 80%, at least 85%, at least 90%, at least 91%, at least 92%, at least 93%, at least 94%, at least 95%, at least 96%, at least 97%, at least 98%, at least 99%, or 100%.
(§1) The compounds were profiled on an ONCOLINES™ Profiler (Netherlands Translational Research Center) assayed with 66 cancer cell lines to determine if they were capable of inhibiting the proliferation of these cancer cells.
To further evaluate potency of the compounds, they were compared with the USP9X inhibitor WP 1130 by screening both the compounds and WP1130 on a 66-cancer cell line panel ONCOLINES™ Profiler.

[2] = tested on: SUP-T1; experiment: ONCOLINES Profiler proliferation; conditions: Homo sapiens; SUP-T1, T-cell lymphoblastic lymphoma
Excerpt: as §1

[3] = tested on: malignant melanoma cell line MWo; experiment: ONCOLINES Profiler proliferation
Excerpt: as §1

IC50 [3]: > 32 µM
SMILES: CN1CCOc2ccc(cc2)C(=O)NCc2ccc(F)c(c2)C(=O)N[C@@H](CC(C)(C)C)C(=O)Nc2ccc(cc2)CCN(C)C(=O)CC(C)(C)CC1=O [Compound 7A]
cancer cell lines sensitive / proliferation inhibited, of 66 ([1]; 66 cell lines tested): 57
activity ([1]; in 3 of 66 cell lines, high Bcl-xL): inactive
fold more potent than WP 1130 ([1]; in 12 of 66 cell lines): about 4 fold
IC50 [2]: 4.29 µM
